Measurements as given in US11377442B2, “Small molecule agonists and antagonists of NR2F6 activity” (ZANDER THERAPEUTICS, INC., priority 2016, dated 2022).
Like-named read-outs stand apart in the source and are kept apart here.

Target: T1, NR2F6 (Homo sapiens, UniProt P10588)
T1 construct: expressed in transfected cells; also transient transfection
T1 sequence (P10588 1-404): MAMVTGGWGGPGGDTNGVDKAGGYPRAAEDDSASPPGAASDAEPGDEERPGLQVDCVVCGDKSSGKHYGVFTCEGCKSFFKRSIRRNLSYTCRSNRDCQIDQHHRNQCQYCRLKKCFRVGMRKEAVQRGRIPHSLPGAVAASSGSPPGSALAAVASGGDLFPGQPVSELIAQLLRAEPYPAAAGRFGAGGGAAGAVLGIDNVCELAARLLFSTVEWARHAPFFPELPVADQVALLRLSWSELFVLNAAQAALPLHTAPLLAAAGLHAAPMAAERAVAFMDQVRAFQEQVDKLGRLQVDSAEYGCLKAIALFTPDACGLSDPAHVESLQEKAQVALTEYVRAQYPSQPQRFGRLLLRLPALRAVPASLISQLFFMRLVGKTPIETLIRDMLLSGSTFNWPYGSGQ
Assay: NR2F6 agonist screening, Firefly signal cmpd/DMSO
Format: cell-based
Set-up: Firefly NR2F6 full length, cmpd/DMSO (mean) / Firefly F4, cmpd/DMSO (mean): unit of the concentration uncertain
Details: for Firefly/Renilla (NR2F6 stable, clone F4): ratio Firefly/Renilla; for Firefly, NR2F6 stable (clone F4)/pGL4: ratio of Firefly in NR2F6 stable clone F4 to pGL4; for Firefly, cmpd repeat 1 / Firefly, cmpd repeat 2: raw signal; for activity (in words): screening result

[1] = Concentration 2 (unit uncertain)
[2] = Concentration 10 (unit uncertain)
[3] = Concentration 40 (unit uncertain)

For `COc1cc(Br)cc2cc(S(=O)(=O)c3ccc(C(C)(C)C)cc3)c(=O)oc12` [Compound C297], which “Firefly, cmpd/DMSO repeat 1” value (Table 11) is on record?
The value was 1.5.

What about the “Firefly, cmpd/DMSO repeat 2” value (Table 11) of the same compound?
The value was 2.6.

With `COc1cc(Br)cc2cc(S(=O)(=O)c3ccc(F)c(C)c3)c(=O)oc12` [Compound C298] as the compound, how does the “Firefly, cmpd/DMSO repeat 1” value (Table 11) read?
The value was 2.2.

What about the “Firefly, cmpd/DMSO repeat 2” value (Table 11) of the same compound?
The value was 3.2.

Which results are given for `Cc1ccc2oc(=O)c(S(=O)(=O)c3cccc(C#N)c3)cc2c1` [Compound C299]?
Firefly/Renilla (NR2F6 stable, clone F4) (Table 12): 4.0; Firefly, NR2F6 stable (clone F4)/pGL4 (Table 12): 10.1; Firefly, cmpd/DMSO repeat 1 (Table 12): 21.5; Firefly, cmpd/DMSO repeat 2 (Table 12): 15.2

What does the source list for `Cc1ccc2oc(=O)c(S(=O)(=O)c3cccc(Cl)c3)cc2c1` [Compound C300]?
Firefly/Renilla (NR2F6 stable, clone F4) (Table 13): 1.6; Firefly, NR2F6 stable (clone F4)/pGL4 (Table 13): 4.3; Firefly, cmpd/DMSO repeat 1 (Table 13): 9.8; Firefly, cmpd/DMSO repeat 2 (Table 13): 7.4

With `CCOC(=O)c1cnc2c(C)cc(C)cc2c1NCCCN(C)C` [Compound D28] as the compound, how does the “Firefly, cmpd/DMSO (mean)” value (mean of repeats) read?
Its value is 12.8.

What about the “Firefly, cmpd repeat 1” value of the same compound?
Its value is 784.

What about the “Firefly, cmpd repeat 2” value of the same compound?
Its value is 644.

And the “Firefly, cmpd/DMSO repeat 1” value?
The value was 14.1.

What about the “Firefly, cmpd/DMSO repeat 2” value of the same compound?
Its value is 11.7.

With `COc1ccc(OC)c(S(=O)(=O)NCc2nc3nc(C)cc(C)n3n2)c1` [Compound E4] as the compound, how does the “Firefly F4, cmpd/DMSO (mean)” value [1] read?
The value was 0.9.

And the “Firefly NR2F6 full length, cmpd/DMSO (mean)” value [1]?
The value was 1.1.

What about the “Firefly F4, cmpd/DMSO (mean)” value [2] of the same compound?
Its value is 0.9.

What about the “Firefly NR2F6 full length, cmpd/DMSO (mean)” value [2] of the same compound?
Its value is 1.0.

And the “Firefly F4, cmpd/DMSO (mean)” value [3]?
The value was 0.8.

And the “Firefly NR2F6 full length, cmpd/DMSO (mean)” value [3]?
Its value is 1.0.

For `COc1ccc(S(=O)(=O)NCc2nc3nc(C)cc(C)n3n2)cc1OC` [Compound E8], which “Firefly F4, cmpd/DMSO (mean)” value [1] is on record?
Its value is 1.0.

And the “Firefly NR2F6 full length, cmpd/DMSO (mean)” value [1]?
Its value is 1.2.

What about the “Firefly F4, cmpd/DMSO (mean)” value [2] of the same compound?
The value was 1.0.

And the “Firefly NR2F6 full length, cmpd/DMSO (mean)” value [2]?
Its value is 1.2.

What about the “Firefly F4, cmpd/DMSO (mean)” value [3] of the same compound?
Its value is 0.7.

And the “Firefly NR2F6 full length, cmpd/DMSO (mean)” value [3]?
Its value is 0.9.

`Cc1cc(C)c(S(=O)(=O)NCc2nc3nc(C)cc(C)n3n2)c(C)c1` [Compound E10] was tested. Which “Firefly F4, cmpd/DMSO (mean)” value [1] did it give?
Its value is 1.1.

And the “Firefly NR2F6 full length, cmpd/DMSO (mean)” value [1]?
The value was 1.3.

What about the “Firefly F4, cmpd/DMSO (mean)” value [2] of the same compound?
Its value is 1.0.

And the “Firefly NR2F6 full length, cmpd/DMSO (mean)” value [2]?
The value was 1.5.

And the “Firefly F4, cmpd/DMSO (mean)” value [3]?
Its value is 0.8.

What about the “Firefly NR2F6 full length, cmpd/DMSO (mean)” value [3] of the same compound?
Its value is 1.1.

`COc1ccc(Cl)cc1S(=O)(=O)NCc1nc2nc(C)cc(C)n2n1` [Compound E15] was tested. Which “Firefly F4, cmpd/DMSO (mean)” value [1] did it give?
The value was 1.3.

And the “Firefly NR2F6 full length, cmpd/DMSO (mean)” value [1]?
The value was 1.2.

And the “Firefly F4, cmpd/DMSO (mean)” value [2]?
Its value is 1.1.

And the “Firefly NR2F6 full length, cmpd/DMSO (mean)” value [2]?
Its value is 0.8.

And the “Firefly F4, cmpd/DMSO (mean)” value [3]?
Its value is 0.8.

What about the “Firefly NR2F6 full length, cmpd/DMSO (mean)” value [3] of the same compound?
Its value is 1.1.

`Cc1cc(C)n2nc(CNS(=O)(=O)c3c(F)c(F)c(F)c(F)c3F)nc2n1` [Compound E21] was tested. Which “Firefly, cmpd/DMSO (mean)” value (mean of repeats) did it give?
Its value is 7.3.

And the “Firefly, cmpd repeat 1” value?
The value was 526.

What about the “Firefly, cmpd repeat 2” value of the same compound?
Its value is 306.

What about the “Firefly, cmpd/DMSO repeat 1” value of the same compound?
Its value is 9.5.

What about the “Firefly, cmpd/DMSO repeat 2” value of the same compound?
Its value is 5.6.

What about the “activity (in words)” value of the same compound?
Its value is “desirable activity”.

What does the source list for `Cc1ccc(S(=O)(=O)NCc2cn3ccccc3n2)c(C)c1` [Compound E24]?
Firefly F4, cmpd/DMSO (mean) [1]: 1.0; Firefly NR2F6 full length, cmpd/DMSO (mean) [1]: 1.0; Firefly F4, cmpd/DMSO (mean) [2]: 0.9; Firefly NR2F6 full length, cmpd/DMSO (mean) [2]: 1.1; Firefly F4, cmpd/DMSO (mean) [3]: 0.7; Firefly NR2F6 full length, cmpd/DMSO (mean) [3]: 1.1

What does the source list for `Cc1ccc(S(=O)(=O)NCc2cn3cccc(C)c3n2)cc1C` [Compound E41]?
Firefly F4, cmpd/DMSO (mean) [1]: 0.9; Firefly NR2F6 full length, cmpd/DMSO (mean) [1]: 1.1; Firefly F4, cmpd/DMSO (mean) [2]: 0.7; Firefly NR2F6 full length, cmpd/DMSO (mean) [2]: 1.0; Firefly F4, cmpd/DMSO (mean) [3]: 0.4; Firefly NR2F6 full length, cmpd/DMSO (mean) [3]: 0.9

Which results are given for `Cc1cccn2cc(CNS(=O)(=O)c3ccccc3F)nc12` [Compound E52]?
Firefly F4, cmpd/DMSO (mean) [1]: 0.7; Firefly NR2F6 full length, cmpd/DMSO (mean) [1]: 1.0; Firefly F4, cmpd/DMSO (mean) [2]: 0.9; Firefly NR2F6 full length, cmpd/DMSO (mean) [2]: 1.3; Firefly F4, cmpd/DMSO (mean) [3]: 0.7; Firefly NR2F6 full length, cmpd/DMSO (mean) [3]: 1.4

`Cc1ccc(S(=O)(=O)N(Cc2nc3nc(C)c(S)c(C)n3n2)c2ccccc2)cc1` [Compound E57] was tested. Which “Firefly F4, cmpd/DMSO (mean)” value [1] did it give?
Its value is 1.0.

And the “Firefly NR2F6 full length, cmpd/DMSO (mean)” value [1]?
Its value is 1.3.

What about the “Firefly F4, cmpd/DMSO (mean)” value [2] of the same compound?
The value was 1.3.

And the “Firefly NR2F6 full length, cmpd/DMSO (mean)” value [2]?
The value was 1.2.

What about the “Firefly F4, cmpd/DMSO (mean)” value [3] of the same compound?
Its value is 1.3.

What about the “Firefly NR2F6 full length, cmpd/DMSO (mean)” value [3] of the same compound?
Its value is 0.9.

`Cc1cc(C)nc(Sc2nnc(-c3ccc(C)c(S(=O)(=O)N4CCOCC4)c3)c3ccccc23)n1` [Compound F1] was tested. Which “Firefly, cmpd/DMSO (mean)” value (mean of repeats) did it give?
Its value is 5.1.

And the “Firefly, cmpd repeat 1” value?
Its value is 310.

And the “Firefly, cmpd repeat 2” value?
The value was 252.

And the “Firefly, cmpd/DMSO repeat 1” value?
Its value is 5.6.

And the “Firefly, cmpd/DMSO repeat 2” value?
Its value is 4.6.

With `COc1ccc(NC(=O)c2ccc3nc(-c4ccccc4)cn3c2)c(OC)c1` [Compound P1] as the compound, how does the “Firefly, cmpd/DMSO (mean)” value (mean of repeats) read?
Its value is 3.5.

What about the “Firefly, cmpd repeat 1” value of the same compound?
Its value is 236.

And the “Firefly, cmpd repeat 2” value?
The value was 166.

What about the “Firefly, cmpd/DMSO repeat 1” value of the same compound?
The value was 4.0.

And the “Firefly, cmpd/DMSO repeat 2” value?
The value was 3.0.

What about the “activity (in words)” value of the same compound?
Its value is “good activity”.

Which results are given for `CC(=O)Nc1ccc(Cl)c2nonc12` [Compound Z113]?
Firefly, cmpd/DMSO (mean): 1.0; Firefly, cmpd/DMSO (mean) (Concentration 2): 1.3; F4, cmpd/DMSO (mean) (Concentration 2): 1.2; Firefly, cmpd/DMSO (mean) (Concentration 10): 1.1; F4, cmpd/DMSO (mean) (Concentration 10): 1.5; Firefly, cmpd/DMSO (mean) (Concentration 40): 0.9; F4, cmpd/DMSO (mean) (Concentration 40): 1.2

`COc1ccccc1-c1noc(Cn2nccc(Cl)c2=O)n1` [Compound Z134] was tested. Which “Firefly, cmpd/DMSO (mean)” value did it give?
Its value is 1.1.

With `COc1ccccc1-c1noc(Cn2ncc(Cl)cc2=O)n1` [Compound Z135] as the compound, how does the “Firefly, cmpd/DMSO (mean)” value read?
Its value is 1.0.

For `COc1cccc(-c2noc(Cn3ncc(C)c(C)c3=O)n2)c1` [Compound Z139], which “Firefly, cmpd/DMSO (mean)” value is on record?
Its value is 1.5.

With `COc1ccc(-c2noc(Cn3ncc(C)c(C)c3=O)n2)cc1` [Compound Z140] as the compound, how does the “Firefly, cmpd/DMSO (mean)” value read?
The value was 1.2.

With `COc1ccc(-c2noc(Cn3nccc(Cl)c3=O)n2)cc1` [Compound Z141] as the compound, how does the “Firefly, cmpd/DMSO (mean)” value read?
Its value is 1.8.

How did the “Firefly, cmpd/DMSO (mean)” value turn out when `COc1ccc(-c2noc(Cn3ncc(Cl)cc3=O)n2)cc1` [Compound Z142] was run?
Its value is 1.1.

For `COc1ccccc1-c1noc(COc2nccc(C)n2)n1` [Compound Z149], which “Firefly, cmpd/DMSO (mean)” value is on record?
Its value is 1.5.

With `COc1ccccc1-c1noc(Cn2ncc(C)cc2=O)n1` [Compound Z150] as the compound, how does the “Firefly, cmpd/DMSO (mean)” value read?
Its value is 1.0.

With `COc1ccccc1-c1noc(Cn2nccc(C)c2=O)n1` [Compound Z151] as the compound, how does the “Firefly, cmpd/DMSO (mean)” value read?
The value was 1.1.

`COc1ccc(-c2noc(Cn3ncc(C)cc3=O)n2)cc1` [Compound Z152] was tested. Which “Firefly, cmpd/DMSO (mean)” value did it give?
The value was 1.6.
